{
  "source": "patent US10821080B2",
  "about": "“Microencapsulation process with solvent and salt” (Evonik Corporation, priority 2008, dated 2020)",
  "experiment": "Equilibrium/saturation study of solvent solubility in PVA solutions with increasing salt concentration",
  "format": "physicochemical",
  "description": "An equilibrium/saturation study was performed to measure solvent solubilities in PVA solutions in increasing salt concentration levels. The saturation solubility in weight % of ethyl acetate and methylene chloride were individually tested with varying sodium chloride weight % in a 2% PVA aqueous solution. […] At about 15 weight % sodium chloride contention, the PVA began to salt out of the solution.",
  "data": [
    {"compound": "CCOC(C)=O", "note": "[ethyl acetate]", "values": [
      {"measurement": "saturation solubility in weight % as the sodium chloride content was increased", "result": "decreased"}
    ]}
  ]
}
